From patent EP1970046A1, “Use of purine and purine derivatives for treating hair” (priority 2007, dated 2008)
Where two headings read alike, the source gives them in different places.

Legend:
Type in all cases: cell-based
[1] = system: KGF; experiment: KGF release from dermal papilla cells (ELISA); settings: dermale Papillenzellen
Description: Der Keratinozyten Wachstumsfaktor Factor (KGF) Ist ein äußerst wichtiger Regulator des Haars. Bei einer potentiell wachstumsfördernden und das Haar stärkenden Aktivsubstanz kann von einer Steigerung der ins Medium ausgeschütteten Faktoren ausgegangen werden. Die Ausschüttung von KGF kann mit Hilfe von kommerziell erhältlichen ELISA-Kits quantifiziert werden. Dazu wurden die dermalen Papillenzellen über 24 Stunden mit Theophyllin inkubiert und die Konzentration des Wachstumsfaktors im Medium in beschriebener Weise quantifiziert. Tabelle 1: Relative Ausschüttung von KGF in [%] nach Behandlung der dermalen Papillenzellen im Vergleich zur unbehandelten Kontrollen.

[2] = system: KGF; experiment: KGF release from organotypic hair follicle cell cultures (ELISA); settings: organotypische Haarfollikelzellkulturen
Description: (§1) Hepatocyte Growth Factor (HGF) und Keratinocyte Growth Factor (KGF) sind wichtige Wachstumsfaktoren, die von der dermalen Papille ausgeschüttet werden, um die Proliferation der Haarschaftkeratinozyten, die für die Synthese der Haarkeratine verantwortlich sind, zu steuern. Sie sind außerdem charakteristische Marker für die Anagenphase, in der auch die Keratinsynthese maximal ist. Darüber hinaus ist zu beachten, dass bei der Haaralterung das Proliferationsvermögen der Haarfollikelzellen abnimmt. Die Ausschüttung von HGF sowie KGF kann mit Hilfe von kommerziell erhältlichen ELISA-Kits quantifiziert werden.
(§2) Dazu werden organotypische Haarfollikelzellkulturn über 72h mit Theophyllin inkubiert und die Konzentration der Wachstumsfaktoren im Medium in beschriebener Weise bestimmt. Tabelle 2: Relative Ausschüttung von HGF und KGF in [%] nach Behandlung des organotypischen Haarfollikelzellkulturen im Vergleich zu unbehandelten Kontrollen.

[3] = system: HGF; experiment: HGF release from organotypic hair follicle cell cultures (ELISA); settings: organotypische Haarfollikelzellkulturen
Description: as §1, §2

[4] = system: hha3; experiment: cells; settings: read-out: Haarkeratinexpression hha3 Mittelwert
Description: (§3) Zur Durchführung der PCR wird zunächst mit Hilfe des RNeasy Mini Kits der Fa. Qiagen die RNA aus ORS-Keratinozyten isoliert und mittels reverser Transkription in cDNA umgeschrieben. Bei der anschließenden PCR Reaktion, die mit Hilfe genspezifischer Primer für die jeweiligen haarrelevanten Gene durchgeführt wird und die der Amplifikation der gesuchten Genabschnitte dient, wird die Bildung der PCR-Produkte online über ein Fluoreszenzsignal detektiert. Das Fluoreszenzsignal ist dabei proportional zur Menge des gebildeten PCR-Produktes. Je stärker die Expression eines bestimmten Gens Ist, desto größer Ist die Menge an gebildetem PCR-Produkt und um so höher ist das Fluoreszenzsignal. Zur Quantifizierung der Genexpression wird die unbehandelte Kontrolle gleich 1 gesetzt und die Expression der zu bestimmenden Gene darauf bezogen (x-fache Expression). Dabei werden Werte, die größer/gleich der 2fachen Expression oder kleiner/gleich der 0.5fachen Expression der unbehandelten Kontrolle sind als signifikant differentiell exprimiert eingestuft. Werte, die größer/gleich der 1,6fachen Expression oder kieiner/gleich der 0.66fachen Expression der unbehandelten Kontrolle sind als tendenziell differentiell exprimiert eingestuft. Die Ergebnisse sind in Tabelle 3 zusammengefasst. Tabelle 3: Haarkeratinexpression nach Behandlung von ORS-Keratinozyten in Zellkulturen im Vergleich zur unbehandelten Kontrolle.
(§4) Die Aktivierung der Keratinsynthese nach Applikation von Theophyllin wurde zusätzlich mit Hilfe organotypischer Haarfollikelzelikulturen untersucht, in denen verschiedene Zellen des Haarfollikels miteinander interagieren können. Die Untersuchungen erfolgten mit dem in Beispiel 3 erläuterten Verfahren der quantitativen Reverse Transkription Polymerase Kettenreaktion. Die Ergebnisse sind in Tabelle 4 zusammengefasst. Tabelle 4: Haarkeratinexpression nach Behandlung mit Theophyllin in organotpischen Haarfollikelzellkulturen im Vergleich zur unbehandelten Kontrolle.

[5] = system: hha4; experiment: cells; settings: read-out: Haarkeratinexpression hha4 Mittelwert
Description: as §3, §4

[6] = system: hhb6; experiment: cells; settings: read-out: Haarkeratinexpression hhb6 Mittelwert
Description: as §3, §4

[7] = system: hha6; experiment: cells; settings: Keratinocyte, read-out: Haarkeratinexpression hha6 Mittelwert
Experimental: (§5) Zur Bestimmung des Einflusses von Theophyllin auf die Expression von Haarkeratinen wurde die differentielle Genexpression mittels quantitatitiver RT-PCR bestimmt. Nach Anzucht der Keratinozyten der äusseren Wurzelscheide (ORS-Keratinozyten) wurden diese für 3, 6 oder 24 h mit Theophyllin in Konzentration von 1.10 und 100 µM inkubiert.
as §3

[8] = system: hha1; experiment: cells; settings: Keratinocyte, read-out: Haarkeratinexpression hha1 Mittelwert
Experimental: as §5, §3

[9] = system: hha3; experiment: cells; settings: Keratinocyte, read-out: Haarkeratinexpression hha3 Mittelwert
Experimental: as §5, §3

[10] = system: hha4; experiment: cells; settings: Keratinocyte, read-out: Haarkeratinexpression hha4 Mittelwert
Experimental: as §5, §3

[11] = system: hhb6; experiment: cells; settings: Keratinocyte, read-out: Haarkeratinexpression hhb6 Mittelwert
Experimental: as §5, §3

In the case of `Cn1c(=O)c2[nH]cnc2n(C)c1=O` [Theophyllin], the activity at 1 µM ([1]; 24 h, 24 Stunden, 1µM, untreated control = 100, read-out: Relative Ausschüttung von KGF Mittelwert) was 121%, the activity at 10 µM ([1]; 24 h, 24 Stunden, 10µM, untreated control = 100, read-out: Relative Ausschüttung von KGF Mittelwert) was 135% and the activity at 100 µM ([1]; 24 h, 24 Stunden, 100µM, untreated control = 100, read-out: Relative Ausschüttung von KGF Mittelwert) was 161%. For the same compound, the “Freisetzung von KGF” value ([1]; result in words) was “signifikant erhöhten Freisetzung”, the “Freisetzung von KGF” value ([2]; 500 µM, result in words) was “tendenziell erhöhten Freisetzung” and the activity at 500 µM ([2]; 72h, untreated = 100 (35), spread in brackets, read-out: Relative Ausschüttung von KGF Mittelwert) was 144%. For the same compound, the activity at 500 µM ([3]; HGF, 72h, untreated = 100 (14), spread in brackets, read-out: Relative Ausschüttung von HGF Mittelwert) was 144%, the “Freisetzung des Hepatozyten Wachstumsfaktor (HGF)” value ([3]; 500 µM, result in words) was “erhöhte Freisetzung” and the fold induction at 10 µM ([4]; 6 h) was 0.76. For the same compound, the fold induction at 100 µM ([4]; 6 h) was 0.76, the fold induction at 10 µM ([4]; 24 h) was 2.27 and the fold induction at 100 µM ([4]; 24 h) was 3. For the same compound, the fold induction at 10 µM ([5]; 6 h) was 0.91, the fold induction at 100 µM ([5]; 6 h) was 1.56 and the fold induction at 10 µM ([5]; 24 h) was 2.08. For the same compound, the fold induction at 100 µM ([5]; 24 h) was 1.88, the fold induction at 10 µM ([6]; 6 h) was 1.28 and the fold induction at 100 µM ([6]; 6 h) was 2.06. It also gave a fold induction at 10 µM ([6]; 24 h) of 1.81, a fold induction at 100 µM ([6]; 24 h) of 1.68 and a fold induction at 1 µM ([7]; 3 h) of 0.45. The fold induction at 10 µM ([7]; 3 h) was 0.59, the fold induction at 100 µM ([7]; 3 h) was 0.28 and the fold induction at 1 µM ([7]; 6 h) was 1.12. For the same compound, the fold induction at 10 µM ([7]; 6 h) was 0.42, the fold induction at 100 µM ([7]; 6 h) was 0.57 and the fold induction at 1 µM ([7]; 24 h) was 3.19. The fold induction at 10 µM ([7]; 24 h) was 2.14, the fold induction at 100 µM ([7]; 24 h) was 1.61 and the fold induction at 1 µM ([8]; 3 h) was 0.73. It also gave a fold induction at 10 µM ([8]; 3 h) of 1.18, a fold induction at 100 µM ([8]; 3 h) of 1.38 and a fold induction at 1 µM ([8]; 6 h) of 0.9. It also gave a fold induction at 10 µM ([8]; 6 h) of 0.92, a fold induction at 100 µM ([8]; 6 h) of 1.22 and a fold induction at 1 µM ([8]; 24 h) of 1.3. It also gave a fold induction at 10 µM ([8]; 24 h) of 1.4, a fold induction at 100 µM ([8]; 24 h) of 2.49 and a fold induction at 1 µM ([9]; 3 h) of 0.86. The fold induction at 10 µM ([9]; 3 h) was 1.47, the fold induction at 100 µM ([9]; 3 h) was 2.47 and the fold induction at 1 µM ([9]; 6 h) was 0.8. It also gave a fold induction at 10 µM ([9]; 6 h) of 0.87, a fold induction at 100 µM ([9]; 6 h) of 1.25 and a fold induction at 1 µM ([9]; 24 h) of 1.2. It also gave a fold induction at 10 µM ([9]; 24 h) of 1.41, a fold induction at 100 µM ([9]; 24 h) of 2.75 and a fold induction at 1 µM ([10]; 3 h) of 0.83. For the same compound, the fold induction at 10 µM ([10]; 3 h) was 1.4, the fold induction at 100 µM ([10]; 3 h) was 2.41 and the fold induction at 1 µM ([10]; 6 h) was 0.81. It also gave a fold induction at 10 µM ([10]; 6 h) of 0.88, a fold induction at 100 µM ([10]; 6 h) of 1.31 and a fold induction at 1 µM ([10]; 24 h) of 1.27. It also gave a fold induction at 10 µM ([10]; 24 h) of 1.48, a fold induction at 100 µM ([10]; 24 h) of 2.65 and a fold induction at 1 µM ([11]; 3 h) of 1.09. The fold induction at 10 µM ([11]; 3 h) was 1.12, the fold induction at 100 µM ([11]; 3 h) was 1.78 and the fold induction at 1 µM ([11]; 6 h) was 0.8. The fold induction at 10 µM ([11]; 6 h) was 0.76, the fold induction at 100 µM ([11]; 6 h) was 1.23 and the fold induction at 1 µM ([11]; 24 h) was 1.34. It also gave a fold induction at 10 µM ([11]; 24 h) of 1.28 and a fold induction at 100 µM ([11]; 24 h) of 1.98.
